Results on 22 molecules are retold here after US9663514B2 (Takeda Pharmaceutical Company Limited, priority 2011, dated 2017).

The target of the test is T1, SYK (Homo sapiens, UniProt P43405).
T1 construct: The SYK kinase domain (residues 356-635) is amplified via PCR; made in house; host or cells: Sf9 insect cells (baculovirus, pFastBac1)
In words: SYK inhibition: in vitro assay of SYK-mediated phosphorylation of FAM-labeled substrate (Caliper LC-3000). Format: biochemical. Particulars: SYK kinase domain (residues 356-635); 2.4 nM SYK and 45 μM ATP, 3 μM 5FAM-KKKKEEIYFFFG-NH2, RT 60 min, pH 7.3; pIC50 = −log(IC50), IC50 molar. The method, then: The ability of compounds to inhibit SYK activity may be assessed using a variety of methods, including in vitro and in vivo assays. The following in vitro assay measures a test compound's ability to inhibit SYK-mediated phosphorylation of a FAM-labeled SYK-specific substrate (5FAM-KKKKEEIYFFFG-NH2).
SYK protein is prepared from cDNA encoding human spleen tyrosine kinase and is expressed in insect cells using a baculovirus expression vector. The cDNA (IMAGE: 3542895) is purchased from Open Biosystems. The SYK kinase domain (residues 356-635) is amplified via PCR and cloned into plasmid pFastBacl (Invitrogen) at BamHI/XbaI sites. Recombinant plasmid encoding Met-Ala-Lys-SYK(356-635)-HHHHHH is sequenced and transformed into E. coli DH10Bac strain. The recombinant bacmid DNA is isolated and transfected into Sf9 insect cells. Recombinant virus is harvested 72 h after transfection. High titer viral stock is prepared by infecting Sf9 cells at a multiplicity of infection (MOI) of approximately 0.01. A suspension of Sf9 cells (10 L) is infected with recombinant virus (MOI=5) and is incubated in a Wave Bioreactor (GE-Healthcare) for 48 h. The cells are harvested and stored at −80° C.
To purify the expressed protein, the frozen Sf9 cells (10 L) are broken into small (<1 cm) particles and suspended in a lysis buffer (300 mL) containing 20 mM Tris (pH 7.6), 0.25 mM TCEP, 100 mM NaCl, 5% glycerol and a protease inhibitor. The suspension is stirred at RT until completely thawed, lysed an additional 2-4 min on a rotary blade homogenizer, and then centrifuged at 4200 g for 1 h. Following centrifugation, the supernatant is poured through cheese cloth and combined with a nickel chelating resin (Probond Resin™, Invitrogen) which is pre-equilibrated in a wash buffer containing 10 mM Tris (pH 7.6), 0.25 mM TCEP, 300 mM NaCl, 5% glycerol, and 20 mM imidazole. The mixture is agitated for 3 h in a cold room and then centrifuged at 900 g for 10 min. The resin is dispersed in wash buffer (50 mL), centrifuged for 10 min at 900 g, re-dispersed in a small amount of wash buffer (5 mL), and then pour into a disposable Poly-Prep chromatography column, through which wash buffer is passed by gravity until no protein is observed in coomassie buffer (about 120 mL of wash buffer). An elution buffer (30 mL) containing 10 mM HEPES (pH 7.4), 150 mM NaCl, 10% glycerol, 5 mM DTT, and 400 mM imidazole is used to elute the SYK protein from the resin. The eluate is concentrated (5 mL) and further purified on a Superdex 200 column (1.2 mL/min for 160 min, 10 mM HEPES (pH 7.4), 10 mM NaCl, 10 mM MgCl, 0.1 mM EDTA, and 0.25 mM TCEP). The chromatographed fractions are run on SDS-PAGE and the requisite fractions are pooled and concentrated. Final delivery buffer is 10 mM HEPES (pH 7.4), 10 mM Methione, 150 mM NaCl, 10% glycerol, 5 mM DTT.
SYK inhibition is determined using a black 384 well plate format in buffer containing 50 mM HEPES, 10 mM NaCl, 10 mM MgCl2, 0.2 mM EDTA, 0.01% EDA (Brij®35), 1 mM DTT, and 0.1 mg/ml BSA at pH 7.3. Each test compound is prepared in DMSO using 2-fold serial dilutions for 11 data points, which are added to the buffer so that each dilution contains 3% DMSO. To each well is added 2 μL of 3 μM SFAM-KKKKEEIYFFFG-NH2 (in buffer), 2 μL of diluted test compound (3% DMSO in buffer), and 2 μL of 2.4 nM SYK and 45 μM ATP (in buffer). The reaction mixture is incubated at RT for 60 min, and quenched by adding 50 mM Hepes, 30 mM EDTA, 0.1% Triton X-100 (pH 7.3). To quantify the fluorescent-labeled substrate and product following reaction, the test plate is loaded on a Caliper LC-3000, which measures percent of conversion by microfluidic-based separation. Corresponding IC50 values are calculated by non-linear curve fitting of the compound concentrations and percent of inhibition to the standard IC50 equation and reported as pIC50, i.e., −log(IC50), where IC50 is molar concentration.

Molecule `Cc1nn(C)c2sc(-c3nc(N[C@@H]4CCOC[C@@H]4N)c(F)c4c3C(=O)NC4)cc12` [Example 37, 6-((3R,4R)-3-Aminotetrahydro-2H-pyran-4-ylamino)-4-(1,3-dimethyl-1H-thieno[2,3-c]pyrazol-5-yl)-7-fluoro-1H-pyrrolo[3,4-c]pyridin-3(2H)-one] gave an IC50 of 0.316 nM. `CCn1cc(-c2nc(N[C@@H]3CCOC[C@@H]3N)c(F)c3c2C(=O)NC3)cn1` [Example 38, 6-((3R,4R)-3-Aminotetrahydro-2H-pyran-4-ylamino)-4-(1-ethyl-1H-pyrazol-4-yl)-7-fluoro-1H-pyrrolo[3,4-c]pyridin-3(2H)-one] gave an IC50 of 20 nM. The figure for `CCOC(=O)c1ccn2cc(-c3nc(N[C@@H]4CCOC[C@@H]4N)c(F)c4c3C(=O)NC4)cc2c1` [Example 39, Ethyl 2-(6-((3R,4R)-3-Aminotetrahydro-2H-pyran-4-ylamino)-7-fluoro-3-oxo-2,3-dihydro-1H-pyrrolo[3,4-c]pyridin-4-yl)indolizine-7-carboxylate] is 2 nM; for `N[C@H]1COCC[C@H]1Nc1nc(-c2cc3cc(C(=O)O)ccn3c2)c2c(c1F)CNC2=O` [Example 40, 2-(6-((3R,4R)-3-Aminotetrahydro-2H-pyran-4-ylamino)-7-fluoro-3-oxo-2,3-dihydro-1H-pyrrolo[3,4-c]pyridin-4-yl)indolizine-7-carboxylic acid] it is 0.2 nM. The figure for `N[C@H]1COCC[C@H]1Nc1nc(-c2cc3n(c2)CCC3=O)c2c(c1F)CNC2=O` [Example 41, 6-((3R,4R)-3-Aminotetrahydro-2H-pyran-4-ylamino)-7-fluoro-4-(1-oxo-2,3-dihydro-1H-pyrrolizin-6-yl)-1H-pyrrolo[3,4-c]pyridin-3(2H)-one] is 20 nM; for `Cc1cc(-c2nc(N[C@@H]3CCCC[C@@H]3N)c(F)c3c2C(=O)NC3)sn1` [Example 42, 6-((1R,2S)-2-Aminocyclohexylamino)-7-fluoro-4-(3-methylisothiazol-5-yl)-1H-pyaolo[3,4-c]pyridin-3(2H)-one] it is 0.631 nM.

For `N[C@H]1CCCC[C@H]1Nc1nc(C#Cc2ccccc2)c2c(c1F)CNC2=O` [Example 43, 6-((1R,2S)-2-Aminocyclohexylamino)-7-fluoro-4-(phenylethynyl)-1H-pyrrolo[3,4-c]pyridin-3(2H)-one], the midpoint of inhibition, the IC50, lay at 63.1 nM. To `N[C@H]1COCC[C@H]1Nc1nc(C#Cc2ccccc2)c2c(c1F)CNC2=O` [Example 44, 6-((3R,4R)-3-Aminotetrahydro-2H-pyran-4-ylamino)-7-fluoro-4-(phenylethynyl)-1H-pyrrolo[3,4-c]pyridin-3(2H)-one] belongs 63.1 nM; to `N[C@H]1CCCC[C@H]1Nc1nc(/C=C/c2ccc(F)cc2)c2c(c1F)CNC2=O` [Example 45, 6-((1R,2S)-2-Aminocyclohexylamino)-7-fluoro-4-(4-fluorostyryl)-1H-pyrrolo[3,4-c]pyridin-3(2H)-one], 2.51 nM. Molecule `N[C@H]1COCC[C@H]1Nc1nc(/C=C/c2ccc(F)cc2)c2c(c1F)CNC2=O` [Example 46, 6-((3R,4R)-3-Aminotetrahydro-2H-pyran-4-ylamino)-7-fluoro-4-(4-fluorostyryl)-1H-pyrrolo[3,4-c]pyridin-3(2H)-one] had an IC50 of 5.01 nM. `N[C@H]1CCCC[C@H]1Nc1nc(CCc2ccccc2)c2c(c1F)CNC2=O` [Example 47, 6-((1R,2S)-2-Aminocyclohexylamino)-7-fluoro-4-phenethyl-1H-pyrrolo[3,4-c]pyridin-3 (2H)-one] gave an IC50 of 100 nM. The figure for `N[C@H]1COCC[C@H]1Nc1nc(CCc2ccccc2)c2c(c1F)CNC2=O` [Example 48] is 100 nM; for `N[C@H]1COCC[C@H]1Nc1nc(CCc2ccc(Cl)cc2)c2c(c1F)CNC2=O` [Example 49, 6-((3R,4R)-3-Aminotetrahydro-2H-pyran-4-ylamino)-4-(4-chlorophenethyl)-7-fluoro-1H-pyrrolo[3,4-c]pyridin-3(2H)-one] it is 63.1 nM. Consider `N[C@H]1CCCC[C@H]1Nc1nc(/C=C/c2ccc(Cl)cc2)c2c(c1F)CNC2=O` [Example 50, 6-((1R,2S)-2-Aminocyclohexylamino)-4-(4-chlorostyryl)-7-fluoro-1H-pyrrolo[3,4-c]pyridin-3(2H)-one], for which the IC50 is 2 nM. The figure for `N[C@H]1COCC[C@H]1Nc1nc(/C=C/c2ccc(Cl)cc2)c2c(c1F)CNC2=O` [Example 51] is 2 nM.

For the molecule `C[C@H]1NC(=O)c2c(-c3cnn4ccc(F)cc34)nc(N[C@@H]3CCCC[C@@H]3N)c(F)c21` [Example 52, (R)-6-(((1R,2S)-2-Aminocyclohexyl)amino)-7-fluoro-4-(5-fluoropyrazolo[1,5-a]pyridin-3-yl)-1-methyl-1H-pyrrolo[3,4-c]pyridin-3(2H)-one], inhibition was half-maximal at 39.8 nM (IC50). To `C[C@@H]1NC(=O)c2c(-c3cnn4ccc(F)cc34)nc(N[C@@H]3CCCC[C@@H]3N)c(F)c21` [Example 53, (S)-6-(((1R,2S)-2-Aminocyclohexyl)amino)-7-fluoro-4-(5-fluoropyrazolo[1,5-a]pyridin-3-yl)-1-methyl-1H-pyrrolo[3,4-c]pyridin-3(2H)-one] belongs 398 nM. The figure for `Cc1ccn2ncc(-c3nc(N[C@@H]4CCCC[C@@H]4N)c(F)c4c3C(=O)N[C@@H]4C)c2c1` [Example 54, (R)-6-(((1R,2S)-2-Aminocyclohexyl)amino)-7-fluoro-1-methyl-4-(5-methylpyrazolo[1,5-a]pyridin-3-yl)-1H-pyrrolo[3,4-c]pyridin-3(2H)-one] is 50.1 nM; for `Cc1ccn2ncc(-c3nc(N[C@@H]4CCCC[C@@H]4N)c(F)c4c3C(=O)N[C@H]4C)c2c1` [Example 55, (S)-6-(((1R,2S)-2-Aminocyclohexyl)amino)-7-fluoro-1-methyl-4-(5-methylpyrazolo[1,5-a]pyridin-3-yl)-1H-pyrrolo[3,4-c]pyridin-3(2H)-one] it is 251 nM; for `Cc1cc(-c2nc(N[C@@H]3CCOC[C@@H]3N)c(F)c3c2C(=O)N[C@@H]3C)sn1` [Example 56, (R)-6-(((3R,4R)-3-Aminotetrahydro-2H-pyran-4-yl)amino)-7-fluoro-1-methyl-4-(3-methylisothiazol-5-yl)-1H-pyrrolo[3,4-c]pyridin-3(2H)-one] it is 15.8 nM. The figure for `Cc1cc(-c2nc(N[C@@H]3CCOC[C@@H]3N)c(F)c3c2C(=O)N[C@H]3C)sn1` [Example 57, (S)-6-(((3R,4R)-3-Aminotetrahydro-2H-pyran-4-yl)amino)-7-fluoro-1-methyl-4-(3-methylisothiazol-5-yl)-1H-pyrrolo[3,4-c]pyridin-3(2H)-one] is 100 nM; for `Cc1ccn2ncc(-c3nc(N[C@@H]4CCOC[C@@H]4N)c(F)c4c3C(=O)NC4)c2c1` [Example 58, 6-(((3R,4R)-3-Aminotetrahydro-2H-pyran-4-yl)amino)-7-fluoro-4-(5-methylpyrazolo[1,5-a]pyridin-3-yl)-1H-pyrrolo[3,4-c]pyridin-3 (2H)-one] it is 12.6 nM.
